Assays:
mouse ear inflammation = test: Mouse ear inflammation test; assay type: in vivo
Description: (§1) The liberation of leukotriene B4 (LTB4) in polymorphonuclear rat leukocytes (PMN) after addition of substances and calcium ionophore was determined by means of reverse phase HPLC according to Sorgeat, P. et al, Proc. Nat. Acad. Sci. 76, 2148-2152 (1979) as a measure of the lipoxygenase inhibition. The in vivo activity of the compounds was determined using the mouse ear inflammation model according to Young, J. M. et al., J. of Investigative Dermatology 82, 367-371 (1984).

lipoxygenase = test: Inhibition of lipoxygenase (liberation of leukotriene B4 in polymorphonuclear rat leukocytes, calcium ionophore, HPLC); assay type: cell-based; details: LTB4 liberation in rat PMN
Description: as §1

Row | IC50 value, inhibition of lipoxygenase (lipoxygenase) | Structure (SMILES) | Inhibition of inflammation, % (mouse ear inflammation; 100 mg/kg per os) | Inhibition of inflammation, % (mouse ear inflammation; 2 mg/ear topical)
1 | – | O=S(=O)(Nc1ccc(Oc2cccc3cccnc23)cc1)c1cccc(C(F)(F)F)c1 [Example 44, N-[4-(quinolin-8-yloxy)phenyl]-3-trifluoromethylbenzenesulphonamide] | 38% | –
2 | 0.088 µg/mL | O=S(=O)(Nc1ccc(Oc2ccc3cccnc3c2)cc1)c1ccc(Cl)cc1 [Example 53, N-[4-(quinolin-7-yloxy)phenyl]-4-chlorobenzenesulphonamide] | – | –
3 | 0.17 µg/mL | O=S(=O)(Nc1ccc(Oc2ccc3cccnc3c2)cc1)c1cccc(C(F)(F)F)c1 [Example 54, N-[4-(quinolin-7-yloxy)phenyl]-3-trifluoromethylbenzenesulphonamide] | – | –
4 | 0.033 µg/mL | O=S(=O)(Nc1ccc(Oc2ccc3cccnc3c2)cc1)c1ccc(F)cc1 [Example 57, N-[4-(quinolin-7-yloxy)phenyl]-4-fluorobenzenesulphonamide] | – | –
5 | – | Cc1ccnc2c(Oc3ccc(NS(=O)(=O)c4ccc(Cl)cc4)cc3)cccc12 [Example 58, N-[4-(4-methylquinolin-8-yloxy)phenyl]-4-chlorobenzenesulphonamide] | – | 58%
6 | 0.1 µg/mL | O=S(=O)(Nc1ccc(OCc2ccc3ccccc3n2)cc1)c1ccc(Cl)cc1 [Example 73, N-[4-(quinolin-2-yl-methyloxy)phenyl]-4-chlorobenzenesulphonamide] | – | –
7 | 0.1 µg/mL | O=S(=O)(Nc1ccc(OCc2ccc3ccccc3n2)cc1)c1cccc(C(F)(F)F)c1 [Example 74, N-[4-(quinolin-2-yl-methyloxy)phenyl]-3-trifluoromethylbenzenesulphonamide] | – | –
8 | 0.057 µg/mL | CCCCS(=O)(=O)Nc1ccc(OCc2ccc3ccccc3n2)cc1 [Example 75, N-[4-(quinolin-2-yl-methyloxy)phenyl]butanesulphonamide] | 46% | 39%
9 | 0.046 µg/mL | O=S(=O)(CCCCl)Nc1ccc(OCc2ccc3ccccc3n2)cc1 [Example 76, N-[4-(quinolin-2-yl-methyloxy)phenyl]-3-chloropropanesulphonamide] | 37% | –
10 | 0.074 µg/mL | CCCC(C)S(=O)(=O)Nc1ccc(OCc2ccc3ccccc3n2)cc1 (centres unmarked) [Example 78, N-[4-(quinolin-2-yl-methyloxy)phenyl]-1-methylbutanesulphonamide] | – | 65%
